Where two headings read alike, the source gives them in different places.

The target in one data set is T1, Human 5-HT7 (Homo sapiens, UniProt P34969).
T1 construct: expressed in transfected cells; host or cells: HEK293
Briefly: In vitro binding affinity to serotonin 5-HT7 receptors using HEK293 cells. The text has this:
2015, 6, 1259-1270. The compounds are tertiary amines and available to bind 5-HT7 receptors both in the brain and in the periphery. Each of the compounds can be derivatized to a corresponding positively-charged quaternary amine, for example, by the addition of a third alkyl group, R3, to render it impermeable to the blood-brain barrier and specific for peripheral 5-HT7 receptors.

The nature of data set [1]: Plasma and brain concentrations after subcutaneous administration (LC-MS/MS). The settings on record: for concentration at 30 min / concentration at 60 min / concentration at 90 min: male, C57Bl/6J, mouse, 3.0 mg/kg subcutaneous, mice, mean (SEM); for concentration at 30 min: 30 min after injection; for concentration at 60 min: 60 min after injection; for concentration at 90 min: 90 min after injection. Type of data set: in vivo, C57Bl/6J mice. As for the experimental part: At 30, 60, or 90 min later, mice were euthanized by rapid cervical dislocation and decapitation. Trunk blood was collected in pre-chilled, heparin-coated tubes. Brains were quickly excised and frozen in liquid nitrogen. Plasma was collected from blood after centrifugation for 5 min at 13,000 g. Whole brain samples were wrapped in foil, and brain and plasma samples were labeled and stored at −80° C. until liquid chromatography-mass spectrometry/mass spectrometry (LC-MS/MS) assays were performed. Frozen brain samples were weighed and homogenized in phosphate buffered saline (PBS), pH 7.4. After the first analysis, the extra brain homogenate was stored at −80° C. until they were thawed for a second, more dilute, analysis. Plasma samples were used directly upon arrival. The proteins from each plasma sample and a portion of each brain homogenate were immediately precipitated with 1:1 methanol:acetonitrile (4× starting volume) and internal standard ((−)-MBP^68) followed by centrifugation at 14,000 g for 5 minutes at 4° C. The resulting supernatants from each sample were dried under nitrogen. Each sample was reconstituted in methanol, vortexed, sonicated briefly, and centrifuged prior to LC-MS/MS analysis. Calibration curves were constructed from the ratios of the peak areas of 5-FPT versus (−)-MBP in extracted standards made in mouse plasma or homogenized mouse brain.
LC-MS/MS analysis was performed using an Agilent 1100 series HPLC and a Thermo Finnigan Quantum Ultra triple quad mass spectrometer. The mobile phases used were 0.1% formic acid in water (A) and 0.1% formic acid in methanol (B) in a 5 minute gradient. Samples of 10 μL each were injected onto a Phenomenex Gemini C18 column (2×50 mm, 5μ) with a C18 guard column. 5-FPT and its internal standard ((−)-MBP) were ionized in ESI+ and detected in SRM mode. Internal standards were used for quantification of the compound level per g tissue or per μL plasma. Four mice were included per group, but plasma levels from one mouse were not detectable due to low volume of blood collected.

A further data set has as its system DOI HTR. As to the kind of experiment: Attenuation of the DOI HTR. Type of data set: in vivo. The settings on record: 5.6 mg/kg.
The mark [2] stands for this setting: brain, read-out: Brain concentration.
Where [3] appears, read: plasma, read-out: Plasma concentration.

T1 sequence (P34969 1-445 isoform P34969-2): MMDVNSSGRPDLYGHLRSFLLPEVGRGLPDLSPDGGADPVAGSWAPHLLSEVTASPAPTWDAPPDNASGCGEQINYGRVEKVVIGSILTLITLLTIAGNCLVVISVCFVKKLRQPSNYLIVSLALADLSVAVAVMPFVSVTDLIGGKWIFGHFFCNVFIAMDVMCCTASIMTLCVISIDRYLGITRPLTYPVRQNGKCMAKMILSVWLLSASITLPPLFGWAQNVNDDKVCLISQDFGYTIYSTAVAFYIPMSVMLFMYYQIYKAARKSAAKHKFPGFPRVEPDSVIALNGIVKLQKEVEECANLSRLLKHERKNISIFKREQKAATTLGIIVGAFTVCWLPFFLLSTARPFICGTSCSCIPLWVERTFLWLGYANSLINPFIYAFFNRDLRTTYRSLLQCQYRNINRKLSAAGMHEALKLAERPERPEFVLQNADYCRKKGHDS

For `CN(C)[C@H]1CCc2c(cccc2-c2ccc(Cl)cc2)C1` [(S)-Methyl / Pheny-4′-Cl], on Human 5-HT7, the affinity corresponds to a Ki of 72 ± 5.8 nM.

At Human 5-HT7, `CCCN(CCC)[C@H]1CCc2c(cccc2-c2ccccc2)C1` [(S)-Propyl / Phenyl] had a Ki of 83 ± 5.8 nM.

Consider `CN(C)C1CCc2c(cccc2-c2cc(F)cc(F)c2)C1` (racemic) [(R/S)-Methyl / Phenyl-3′,5′-F], for which the affinity at Human 5-HT7, expressed as Ki, was 180 ± 32 nM.

The compound `CN(C)C1CCc2c(cccc2OCc2ccccc2)C1` (racemic) [(R/S)-Methyl / O-Benzyl] came in with a Ki at Human 5-HT7 of more than 10000 nM.

`CN(C)C1CCc2c(cccc2-c2ccc(F)cc2)C1` (racemic) [(R/S)-Methyl / Phenyl-4′-F]: on Human 5-HT7, the Ki was 120 ± 17 nM.

The compound `CN(C)C1CCc2c(cccc2C2CCCC2)C1` (racemic) [(R/S)-Methyl / Cyclopentyl] gave a Ki on Human 5-HT7 of 240 ± 35 nM.

Compound `CN(C)C1CCc2c(cccc2-c2ccc(F)cc2Cl)C1` (racemic) [(R/S)-Methyl / Phenyl-2′-Cl-4′-F] came in with a Ki on Human 5-HT7 of 30 ± 10 nM.

With `CN(C)[C@@H]1CCc2c(cccc2-c2ccccc2F)C1` [(R)-Methyl / Phenyl-2′-F], the inhibitory constant (Ki) on Human 5-HT7 was found to be 260 ± 53 nM.

`CN(C)[C@@H]1CCc2c(cccc2-c2ccccc2)C1` [(R)-Methyl / Phenyl] returned a Ki on Human 5-HT7 of 4400 ± 930 nM.

On Human 5-HT7, `CCCN(CCC)[C@@H]1CCc2c(cccc2-c2ccccc2)C1` [(R)-Propyl / Phenyl] displayed a Ki of 180 ± 31 nM. Against the preceding compound, the Ki is about 24-fold lower.

For `CN(C)[C@H]1CCc2c(cccc2-c2ccccc2F)C1` [(S)-Methyl / Phenyl-2′-F], at Human 5-HT7, the Ki amounted to 6 ± 0.7 nM.

The compound `CN(C)[C@H]1CCc2c(cccc2-c2ccccc2)C1` [(S)-Methyl / Phenyl] had a Ki at Human 5-HT7 of 9 ± 0.4 nM.

Regarding `COc1cccc(-c2cccc3c2CCC(N(C)C)C3)c1` (racemic) [(R/S)-Methyl / Phenyl-3′-OMe], at Human 5-HT7, the affinity corresponds to a Ki of 37 ± 9 nM.

Regarding `CN(C)C1CCc2c(cccc2-c2ccccc2F)C1` (single isomer, unassigned; (+)) [(+)-5-FPT, 5-(2′-fluorophenyl)-N,N-dimethyl-1,2,3,4-tetrahydronaphthalen-2-amine], in data set [1] (30, 60 and 90 min after systemic administration), the Blood-brain barrier crossing entry is recorded as “readily crosses the blood-brain barrier”. Moreover, in data set [1] (as soon as 30 min post-administration), the “Clearance in the periphery (plasma relative to brain levels)” value is given as “rapidly cleared in the periphery”. Also, in data set [1] (setting [2]), the concentration at 30 min was 1780 ng/g, the concentration at 60 min came out at 2160 ng/g and the concentration at 90 min turned out to be 1460 ng/g. Moreover, in data set [1] (setting [3]), the concentration at 30 min came to 114 ng/mL, the concentration at 60 min is 118 ng/mL and the concentration at 90 min was found to be 70 ng/mL. Further, in the data set on DOI HTR, the “Time for which attenuating effect on the DOI HTR remained significant” value is “up to 2 hrs”. Further, the “Block of the DOI HTR” value in the data set with DOI HTR (3 hrs. post-administration) is on record as “did not block the DOI HTR”.

At Human 5-HT7, `CCCN(CCC)[C@@H]1CCc2c(cccc2-c2ccccc2F)C1` [(R)-Propyl / 2′-F-Phenyl] displayed a Ki of 63 ± 2.7 nM.

At Human 5-HT7, `CN(C)[C@H]1CCc2c(cccc2-c2cc(C(F)(F)F)cc(C(F)(F)F)c2)C1` [(S)-Methyl / Phenyl-3′,5′-CF3] showed a Ki of 910 ± 260 nM.

At Human 5-HT7, `CN(C)C1CCc2c(cccc2-c2cccc(Cl)c2)C1` (racemic) [(R/S)-Methyl / Phenyl-3′-Cl] showed a Ki of 18 ± 2.4 nM.

Take `CN(C)C1CCc2c(cccc2-c2cccc(F)c2)C1` (racemic) [(R/S)-Methyl / Phenyl-3′-F]: the affinity at Human 5-HT7, expressed as Ki, was 34 ± 6.2 nM.

Consider `CCCN(CCC)[C@H]1CCc2c(cccc2-c2ccccc2F)C1` [(S)-Propyl / 2′-F-Phenyl], for which the Ki on Human 5-HT7 is 35 ± 5.2 nM.

Consider `CN(C)[C@@H]1CCc2c(cccc2-c2ccccc2Cl)C1` [(R)-Methyl / Phenyl-2′-Cl], for which the affinity at Human 5-HT7, expressed as Ki, was 58 ± 12 nM.

As to `CN(C)C1CCc2c(cccc2-c2cc(Cl)cc(Cl)c2)C1` (racemic) [(R/S)-Methyl / Phenyl-3′,5′-Cl], the Ki at Human 5-HT7 came out at 40 ± 60 nM.

`COc1cc(-c2ccccc2)c2c(c1OC)CC(N(C)C)CC2` (racemic) [(R/S)-Methyl / 7,8-diOMe-5-Phenyl] showed a Ki on Human 5-HT7 of more than 10000 nM.

Turning to `CN(C)C1CCc2c(cccc2-c2cccc(C(F)(F)F)c2)C1` (racemic) [(R/S)-Methyl / Phenyl-3′-CF3], affinity at Human 5-HT7 was put at a Ki of 63 ± 6.6 nM.

Take `CN(C)[C@H]1CCc2c(cccc2-c2ccccc2Cl)C1` [(S)-Methyl / Phenyl-2′-Cl]: at Human 5-HT7, the affinity corresponds to a Ki of 6 ± 0.6 nM.

Source of the values: patent publication US10548856B2, “Compounds and methods for modulating serotonin receptors in the periphery” (Northeastern University, priority 2015, dated 2020).
